The subject of one series is Smn protein. The series is described as follows: Smn protein assay in cultured cells (SMN HTRF). The series is classed as cell-based, human. The note with it: 48 hours; for EC1.5x (concentration giving 1.5-fold Smn protein increase): SMA Type 1 patient fibroblast cells (GM03813), 7-point concentration curve, SMN HTRF, concentration producing 1.5 times Smn protein vs DMSO vehicle control, read-out: EC1.5x for Smn protein expression; for maximum fold (Fold) increase of Smn protein: SMA patient fibroblast cells, 7-point concentration data, fold increase relative to vehicle control (SMN HTRF). A digest of the protocol: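 Smn in SMA fibroblast lysates, measured by anti-SMN HTRF after 48 h compound exposure; EC1.5x from fold change over vehicle.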

The subject of series [1] is SMN2 minigene (full length SMN2 minigene mRNA containing SMN2 exon 7). The series is described as follows: SMN2 minigene mRNA splicing RT-qPCR assay in cultured cells. The series is classed as cell-based, human. The note with it: Homo sapiens, HEK293-H; HEK293H cells stably transfected with SMN2-A minigene; 24 hours; 7-point concentration curve; 1.5-fold relative to vehicle-treated cells; read-out: EC1.5x for production of full length SMN2 mRNA. A digest of the protocol:
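Lysates → one-step RT-qPCR, minigene-specific primers (0.4 μM final) + GAPDH multiplex, 40 cycles. FL/GAPDH vs DMSO; EC1.5x, star-binned.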
On the technique in general: In qPCR the cycle at which signal appears reflects the starting amount.

Where only a bound is given, the exact number is not on record here.

The text below walks through data of patent USRE47689E1, “Compounds for treating spinal muscular atrophy” (PTC Therapeutics, Inc., priority 2011, dated 2019).

A word on the melting point: it is the temperature, or range, at which the solid turns liquid. Turning to `CN(CCO)Cc1ccc2cc(-c3nc4c(Cl)cccc4s3)c(=O)oc2c1` [Compound 271, 3-(4-chloro-1,3-benzothiazol-2-yl)-7-{[(2-hydroxyethyl)(methyl)amino]methyl}-2H-chromen-2-one], the melting point lay in the range of 193 to 196 °C. Besides, in the series with Smn protein, the EC1.5x (concentration giving 1.5-fold Smn protein increase) fell in the range of 3000 to 10000 nM; the “maximum fold (Fold) increase of Smn protein” value (“maximum fold (Fold) increase” for short) is “**** (fold increase between >1.5 and ≤1.65)”. Further, in series [1], the EC (1.5-fold) is 1 to 3 µM.

`CCN(CC)Cc1ccc2cc(-c3nc4c(Cl)cccc4s3)c(=O)oc2c1` [Compound 58, 3-(4-chloro-1,3-benzothiazol-2-yl)-7-[(diethylamino)methyl]-2H-chromen-2-one] had a melting point of 147 to 151 °C. In addition, in the series on Smn protein, the EC1.5x (concentration giving 1.5-fold Smn protein increase) was 300 to 1000 nM; the “maximum fold (Fold) increase” value was “**** (fold increase between >1.5 and ≤1.65)”. Also, the EC (1.5-fold) in series [1] fell in the range of 1 to 3 µM.

Regarding `Cc1ccc2nc(-c3cc4ccc(N5CCN[C@@H](C)C5)cc4oc3=O)cn2n1` [Compound 624, 3-(6-methylimidazo[1,2-b]pyridazin-2-yl)-7-[(3S)-3-methylpiperazin-1-yl]-2H-chromen-2-one], the melting point lay within 208 to 212 °C. Besides, in the series on Smn protein, the “maximum fold (Fold) increase” value was “*** (fold increase between >1.35 and ≤1.5)”. The EC (1.5-fold) in series [1] was less than 0.1 µM.

`Cc1cnc2nc(-c3cc4ccc(N5CCNCC5)cc4oc3=O)cn2c1` [Cpd 241, 3-(6-methylimidazo[1,2-a]pyrimidin-2-yl)-7-(piperazin-1-yl)-2H-chromen-2-one]: the melting point was greater than 300 °C. For the same molecule, the “maximum fold (Fold) increase” value with Smn protein is reported as “* (maximum fold increase of ≤1.2)”. Besides, in series [1], the EC (1.5-fold) fell in the range of 0.3 to 1 µM.

With `Cc1cn2cc(-c3cc4ccc(N[C@H]5CCN(C)C5)cc4oc3=O)nc2c(C)n1` [Compound 657, 3-(6,8-dimethylimidazo[1,2-a]pyrazin-2-yl)-7-{[(3S)-1-methylpyrrolidin-3-yl]amino}-2H-chromen-2-one], the melting point fell in the range of 223 to 233 °C. In the series with Smn protein, the EC1.5x (concentration giving 1.5-fold Smn protein increase) is less than 300 nM; the “maximum fold (Fold) increase” value is “**** (fold increase between >1.5 and ≤1.65)”. Moreover, the EC (1.5-fold) in series [1] was less than 0.1 µM.

`Cc1cn2cc(-c3cc4ccc(N[C@@H]5CCN(CCO)C5)cc4oc3=O)nc2c(C)n1` [Compound 732, 3-(6,8-dimethylimidazo[1,2-a]pyrazin-2-yl)-7-{[(3R)-1-(2-hydroxyethyl)pyrrolidin-3-yl]amino}-2H-chromen-2-one]: the melting point fell in the range of 211 to 219 °C. Further, in the series on Smn protein, the EC1.5x (concentration giving 1.5-fold Smn protein increase) is less than 300 nM; the “maximum fold (Fold) increase” value was “*** (fold increase between >1.35 and ≤1.5)”. Moreover, the EC (1.5-fold) in series [1] is less than 0.1 µM.

In turn, `Cc1ccc2oc(-c3cc4ccc(N5CCN(C)CC5)cc4oc3=O)cc2n1` [Cpd 698, 3-(5-methylfuro[3,2-b]pyridin-2-yl)-7-(4-methylpiperazin-1-yl)-2H-chromen-2-one] gave a melting point of 178 to 180 °C. For the same molecule, in the series on Smn protein, the “maximum fold (Fold) increase” value was “* (maximum fold increase of ≤1.2)”. Moreover, the EC (1.5-fold) in series [1] is 1 to 3 µM.

Consider `C[C@@H]1CN(c2cc(F)c3cc(-c4cn5cccc(Cl)c5n4)c(=O)oc3c2)C[C@H](C)N1` [Compound 388, 3-(8-chloroimidazo[1,2-a]pyridin-2-yl)-7-[(3R,5S)-3,5-dimethylpiperazin-1-yl]-5-fluoro-2H-chromen-2-one], for which the melting point lay in the range of 290 to 300 °C. For the same molecule, in the series with Smn protein, the “maximum fold (Fold) increase” value was “** (fold increase between >1.2 and ≤1.35)”. Moreover, in series [1], the EC (1.5-fold) lay within 0.3 to 1 µM.

Regarding `Cc1cn2cc(-c3cc4ccc(N5C[C@@H]6CN(C(C)C)C[C@@H]6C5)cc4oc3=O)nc2c(C)n1` [Compound 743, 3-(6,8-dimethylimidazo[1,2-a]pyrazin-2-yl)-7-[(3aR,6aS)-5-(propan-2-yl)hexahydropyrrolo[3,4-c]pyrrol-2(1H)-yl]-2H-chromen-2-one], the melting point lay within 249 to 258 °C. Moreover, in the series with Smn protein, the EC1.5x (concentration giving 1.5-fold Smn protein increase) is less than 300 nM and the “maximum fold (Fold) increase” value is on record as “***** (fold increase >1.65)”. The EC (1.5-fold) in series [1] was less than 0.1 µM.
